# According to patent US20090286750A1, “USE OF RIBOSE IN LESSENING THE CLINICAL SYMPTOMS OF ABERRANT FIRING OF NEURONS” (priority 2008, published 2009):
# Where two headings read alike, the source gives them in different places.
# Tests used:
# [1] = Serum D-Ribose levels and half life after infusion or oral administration; assay type: in vivo, human
# Procedure: D-Ribose is found at low levels in the diet and normal serum levels are approximately 2 mg/dl. […] When infused for short periods at the concentrations of 60 mg/kg and 100 mg/kg, D-Ribose levels in the serum rose, in each case, to approximately 25 mg/dl. These doses of D-Ribose, for a 60 kilogram man, are 3.6 and 5 grams, respectively. Doses for larger or smaller size humans can be calculated based on their mass, and are typically 1 to 10 grams. […] Intravenous administration of high doses of D-Ribose can elevate the serum levels to as high as 60 mg/dl, while a further increase in dose to 222.2 mg/kg can produce a serum level as high as 86 mg/dl. See, for example, Gross et al., Klinische Wochenschrift (1991) 69:31-36.
# Serum D-ribose levels should be maintained long enough to establish an effect that will persist after the serum D-ribose level is back to baseline levels. […] Typically, approximately a third of the cardiac output is used to supply energy to the brain.
# [2] = tested on: two familial males with RLS; test: Restless Legs Syndrome case study, oral D-ribose at three dosing regimens; assay type: in vivo, human
# From the text: We present a report on two familial males with RLS in which the supplementation of D-ribose produced a benefit in lessening the occurrence and severity of their daily symptoms. Both affected male individuals were from a positive family prevalence, three generations carrying the diagnosis of RLS. These males involved the latter two generations, parent and child, respectively. Both men had no underlying medical conditions. Their symptoms of RLS date back for decades and presently have progressed to the moderate to severe discomfort stage, mainly experienced during sedentary periods throughout the day with exacerbation of symptoms during nocturnal sleep. Both individuals were introduced to D-ribose. To evaluate any potential benefits of D-ribose in RLS, each individual orally consumed D-ribose (five grams per dose) daily at different trial dosing regimens. Each trial dosing regimen lasted for three weeks with a two week interval washout between dosing regimens. The initial regimen involved a single dose of oral D-ribose consumed only at breakfast. The second dosing regimen involved consumption of oral D-ribose at breakfast and lunch. In the last dosing regiment, oral D-ribose was taken with all meals, breakfast, lunch and dinner. A diary pertaining to the documentation and severity of RLS symptoms was compiled. The two week washout period between stages was designed to observe any return or worsening of their symptoms. […] Following completion of all dosing regimens of oral D-ribose and with the final wash out period, both males elected to re-start oral dosing of D-ribose at 5 grams/doses three times a day.
# [3] = cited from earlier work
# [4] = regardless of the measured serum level of D-Ribose; cited from earlier work
# [5] = tested on: two familial males with RLS; settings: oral dosage below eight grams at a time, no more often than every two hours; cited from earlier work
# [6] = oral 5 g at breakfast and lunch, three weeks
# [7] = oral 5 g at breakfast, lunch and dinner, three weeks
# [8] = oral 5 g, single dose at breakfast, three weeks
structure (smiles),measurement,setting,value
O=C[C@H](O)[C@H](O)[C@H](O)CO [D-Ribose],time for serum D-Ribose levels to drop to near baseline of two mg/dl,[1]; at a 15 minute half life,within an hour
same,half-life,"[1]; human, serum, assumed from the above oral pharmacokinetic information",15 min
same,washout complete after ceasing D-ribose supplementation,[2]; RLS study,48 h
same,leg twitching events and urge to move during the day,[2]; [6],reduced for one of the subjects and rarely present in the other
same,nocturnal symptoms,[2]; [6],still experienced the unpleasant sensations during the night
same,diurnal symptoms,[2]; [7],total elimination
same,nocturnal symptoms,[2]; [7],of a much lesser degree and had a later occurrence
same,"general feeling (energy, fatigue)",[2]; [8],more energy and less fatigue
same,symptoms of RLS,[2]; [8],without any significant changes
same,adverse reactions,[2]; oral 5 grams/dose three times a day,without any adverse reactions
same,severity and onset of symptoms affecting quality of life,[2]; re-started oral 5 grams/dose three times a day,substantially improved
same,time to return of clinical RLS symptoms after cessation of oral D-ribose,[2]; washout period,≤ 48 h
same,normal serum levels of D-Ribose,"[3]; baseline, from diet",approximately 2 mg/dl
same,D-Ribose level in the serum,[3]; infused for short periods at 60 mg/kg,approximately 25 mg/dl
same,D-Ribose level in the serum,[3]; infused for short periods at 100 mg/kg,approximately 25 mg/dl
same,half life of D-Ribose in the serum,[3]; infusion 60 mg/kg,11 min
same,half life of D-Ribose in the serum,[3]; infusion 100 mg/kg,16 min
same,serum D-Ribose level,[3]; intravenous administration of high doses,≤ 60 mg/dL
same,serum D-Ribose level,"[3]; intravenous, further increase in dose to 222.2 mg/kg",≤ 86 mg/dL
same,serum D-Ribose level,"[3]; oral, four hours of 83.2 mg/kg per hour",29.25 mg/dL
same,serum D-Ribose level,"[3]; oral, four hours of 166.7 mg/kg per hour",35 mg/dL
same,"decline in serum glucose, ultimate lower level",[4],25%
same,side effects,[5],no side effects
